According to ChEMBL document CHEMBL1201862, “PubChem BioAssay data set” (2004):
The source made the active and inactive calls.

Key:
[1] = target: Serine/threonine-protein phosphatase PP1-alpha catalytic subunit (Homo sapiens, UniProt P62136); assay: PP1 phosphatase inhibitors, dose response, biochemical, fluorescence (AID 2403);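 note: phosphatase turnover of OMFP into fluorescent 3-O-methylfluorescein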
[2] = target: Serine/threonine-protein phosphatase (Homo sapiens, UniProt Q9BPW0); assay: Counterscreen for inhibitors of PP1: fluorescence-based biochemical high throughput dose response assay to identify inhibitors of Protein Phosphatase 5 (PP5). [Related pubchem assays: 2034 (Summary (PP5 inhibitors)), 1987 (PP5 inhibitors in singlate), 2235 (PP1 inhibitors in singlate)]
Serine/threonine-protein phosphatase, sequence (Q9BPW0 whole entry): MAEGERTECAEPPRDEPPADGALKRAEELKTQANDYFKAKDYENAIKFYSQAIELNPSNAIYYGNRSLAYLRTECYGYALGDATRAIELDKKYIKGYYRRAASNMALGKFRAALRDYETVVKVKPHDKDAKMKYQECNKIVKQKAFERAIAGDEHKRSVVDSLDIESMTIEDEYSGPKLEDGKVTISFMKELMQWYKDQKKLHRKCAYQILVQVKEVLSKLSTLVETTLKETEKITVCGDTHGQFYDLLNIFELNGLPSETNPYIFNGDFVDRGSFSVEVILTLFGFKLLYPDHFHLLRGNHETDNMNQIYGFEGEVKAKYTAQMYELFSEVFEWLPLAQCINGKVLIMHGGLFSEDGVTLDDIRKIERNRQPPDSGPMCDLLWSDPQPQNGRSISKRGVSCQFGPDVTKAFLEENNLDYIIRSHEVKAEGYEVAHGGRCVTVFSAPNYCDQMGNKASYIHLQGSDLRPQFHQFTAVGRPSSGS

Cytochrome P450 2D6 = Cytochrome P450 2D6 (Homo sapiens, UniProt P10635); assay: qHTS Assay for Inhibitors and Substrates of Cytochrome P450 2D6. [Related pubchem assays: 410 ]; assay type: ADME; settings: read-out: Potency
Cytochrome P450 2D6, sequence (P10635 whole entry): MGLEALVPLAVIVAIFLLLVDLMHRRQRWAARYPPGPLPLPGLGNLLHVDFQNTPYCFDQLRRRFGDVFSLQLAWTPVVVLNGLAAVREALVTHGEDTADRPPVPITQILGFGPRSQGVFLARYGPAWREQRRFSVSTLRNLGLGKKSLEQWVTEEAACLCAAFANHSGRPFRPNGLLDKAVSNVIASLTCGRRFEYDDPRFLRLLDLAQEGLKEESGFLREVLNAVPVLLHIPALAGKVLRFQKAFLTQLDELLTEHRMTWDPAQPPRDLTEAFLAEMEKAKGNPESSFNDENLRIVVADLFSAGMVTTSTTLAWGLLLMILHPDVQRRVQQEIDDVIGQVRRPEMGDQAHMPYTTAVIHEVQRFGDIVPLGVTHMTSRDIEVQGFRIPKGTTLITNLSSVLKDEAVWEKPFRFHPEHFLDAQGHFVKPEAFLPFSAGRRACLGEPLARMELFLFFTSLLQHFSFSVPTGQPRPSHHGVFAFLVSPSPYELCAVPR

Cytochrome P450 1A2 = target: T1, Cytochrome P450 1A2 (Homo sapiens, UniProt P05177);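 note: PubChem cytochrome P450 panel assay, CYP1A2 panel member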
T1 sequence (P05177 whole entry): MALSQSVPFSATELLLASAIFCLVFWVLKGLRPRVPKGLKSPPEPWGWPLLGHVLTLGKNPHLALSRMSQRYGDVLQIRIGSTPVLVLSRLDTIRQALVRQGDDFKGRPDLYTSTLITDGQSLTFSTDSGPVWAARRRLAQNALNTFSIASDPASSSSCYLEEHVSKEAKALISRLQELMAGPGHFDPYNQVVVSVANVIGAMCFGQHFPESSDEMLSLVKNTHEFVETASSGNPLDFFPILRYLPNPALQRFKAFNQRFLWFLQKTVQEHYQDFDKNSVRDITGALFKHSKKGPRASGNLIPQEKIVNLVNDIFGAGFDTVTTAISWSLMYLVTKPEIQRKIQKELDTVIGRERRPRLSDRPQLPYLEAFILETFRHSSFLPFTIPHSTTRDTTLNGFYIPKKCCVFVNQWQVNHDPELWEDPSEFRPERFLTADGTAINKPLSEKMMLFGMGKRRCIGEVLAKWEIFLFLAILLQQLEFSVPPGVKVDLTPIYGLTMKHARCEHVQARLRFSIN

[3] = inhibitors of firefly luciferase expression or activity, dose response, H4 neuroglioma cells, luminescence (AID 1990); assay type: functional, cell-based
[4] = luciferase reporter signal reduction – luminescence, H4-C neuroglioblastoma cells, dose response (AID 2458); assay type: functional, cell-based;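 note: H4 neuroglioblastoma cells stably carrying a luciferase reporter gene fusion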
cells = assay type: functional, cell-based
[5] = Luminescence Cell-Based Dose Response HTS to Identify Inhibitors of 5'UTR Stem-Loop Driven Prion Protein mRNA Translation in H4 Neuroglioblastoma Cells. [Related pubchem assays: 1827 (Project Summary), 1813 (Primary HTS)]; assay type: functional
[6] = inhibitors of SNCA 5'UTR-driven reporter translation, confirmation, H4 neuroglioma cells, luminescence (AID 1988); assay type: functional, cell-based
[7] = inhibitors of SNCA 5'UTR-driven translation, confirmation, luminescence, H4 neuroglioblastoma cells, dose confirmation (AID 2454); assay type: functional, cell-based;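 note: H4 neuroglioblastoma cells carrying an alpha-synuclein 5'UTR luciferase reporter; potency for inhibition of the luciferase signal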
[8] = cytotoxicity in HEK-293T cells, dose response, cytotoxicity control for TCR NF-kB inhibitor project, luminescence, T-cell screen hits (AID 489026); assay type: functional, cell-based;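 note: cells exposed to compound about 14 hours before the viability readout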
[9] = Luminescence-based counterscreen assay for KLF5 inhibitors: dose response cell-based high throughput screening assay to identify cytotoxic compounds using the IEC-6 intestinal epithelial cell line. [Related pubchem assays: 1700 (Primary screen.), 1834 (Confirmation screen.), 1858 (Summary AID.), 1905 (Counterscreen.)]; assay type: functional
[10] = target: T2, Sentrin-specific protease 8 (Homo sapiens, UniProt Q96LD8); assay: SENP8 protease inhibitors, SAR follow-up, biochemical, luminescence (AID 504501); assay type: functional
T2 sequence (Q96LD8 whole entry): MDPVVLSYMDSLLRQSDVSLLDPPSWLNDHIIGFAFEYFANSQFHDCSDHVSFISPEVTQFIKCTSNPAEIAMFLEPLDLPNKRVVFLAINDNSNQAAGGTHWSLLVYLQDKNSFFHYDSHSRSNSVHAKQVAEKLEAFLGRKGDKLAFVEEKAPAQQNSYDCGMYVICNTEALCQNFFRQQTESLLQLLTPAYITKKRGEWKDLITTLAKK

Caspase-3 = target: T3, Caspase-3 (Homo sapiens, UniProt P42574); assay: SAR Analysis of small molecule inhibitors of Sentrin-specific proteases (SENPs) using a Caspase-3 Selectivity assay. [Related pubchem assays (depositor defined):AID2540, AID2599, AID434973, AID489001]; assay type: functional
T3 sequence (P42574 whole entry): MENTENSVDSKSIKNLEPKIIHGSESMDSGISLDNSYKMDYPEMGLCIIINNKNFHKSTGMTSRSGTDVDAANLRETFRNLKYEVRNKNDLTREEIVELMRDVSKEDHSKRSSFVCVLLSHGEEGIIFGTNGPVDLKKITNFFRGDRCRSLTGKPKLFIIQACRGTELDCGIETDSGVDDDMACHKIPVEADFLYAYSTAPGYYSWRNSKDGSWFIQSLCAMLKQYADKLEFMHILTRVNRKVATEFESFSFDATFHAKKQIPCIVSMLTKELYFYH

[11] = target: T4, Sentrin-specific protease 6 (Homo sapiens, UniProt Q9GZR1); assay: SAR Analysis of small molecule inhibitors of Sentrin-specific protease 6 (SENP6) using a Luminescent assay. [Related pubchem assays (depositor defined):AID2582, AID2599]; assay type: functional
T4 sequence (Q9GZR1 whole entry): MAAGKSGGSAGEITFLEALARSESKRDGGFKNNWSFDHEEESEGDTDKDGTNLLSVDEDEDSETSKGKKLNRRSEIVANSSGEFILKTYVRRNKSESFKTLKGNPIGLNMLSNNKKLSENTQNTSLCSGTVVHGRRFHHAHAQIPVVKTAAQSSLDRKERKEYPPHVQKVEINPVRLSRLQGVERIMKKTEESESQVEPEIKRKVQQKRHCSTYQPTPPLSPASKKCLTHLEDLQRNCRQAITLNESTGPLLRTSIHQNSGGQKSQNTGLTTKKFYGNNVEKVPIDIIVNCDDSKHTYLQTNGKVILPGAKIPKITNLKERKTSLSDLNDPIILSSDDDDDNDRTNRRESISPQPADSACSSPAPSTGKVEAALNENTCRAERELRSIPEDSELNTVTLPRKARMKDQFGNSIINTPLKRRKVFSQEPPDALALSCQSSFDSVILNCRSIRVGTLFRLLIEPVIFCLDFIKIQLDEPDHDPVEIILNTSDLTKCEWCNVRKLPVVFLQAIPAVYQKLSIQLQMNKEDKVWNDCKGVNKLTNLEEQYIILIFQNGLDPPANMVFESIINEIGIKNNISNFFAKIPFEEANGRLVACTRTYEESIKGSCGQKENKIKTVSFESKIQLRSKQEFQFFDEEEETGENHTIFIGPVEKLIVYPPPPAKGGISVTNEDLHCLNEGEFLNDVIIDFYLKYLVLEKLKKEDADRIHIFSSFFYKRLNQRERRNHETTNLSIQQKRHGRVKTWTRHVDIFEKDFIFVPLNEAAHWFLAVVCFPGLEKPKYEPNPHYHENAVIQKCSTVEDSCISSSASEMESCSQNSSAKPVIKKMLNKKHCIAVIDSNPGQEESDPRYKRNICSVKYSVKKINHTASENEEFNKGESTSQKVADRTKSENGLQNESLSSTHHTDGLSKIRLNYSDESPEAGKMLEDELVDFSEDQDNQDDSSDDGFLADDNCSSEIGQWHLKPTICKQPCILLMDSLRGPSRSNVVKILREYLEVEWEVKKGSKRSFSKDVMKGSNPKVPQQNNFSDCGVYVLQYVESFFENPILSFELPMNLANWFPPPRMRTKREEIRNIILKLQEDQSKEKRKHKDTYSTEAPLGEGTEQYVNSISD

[12] = target: T5, Sentrin-specific protease 7 (Homo sapiens, UniProt Q9BQF6); assay: SENP7 protease inhibitors, SAR follow-up, biochemical, luminescence (AID 504497); assay type: functional
T5 sequence (Q9BQF6 whole entry): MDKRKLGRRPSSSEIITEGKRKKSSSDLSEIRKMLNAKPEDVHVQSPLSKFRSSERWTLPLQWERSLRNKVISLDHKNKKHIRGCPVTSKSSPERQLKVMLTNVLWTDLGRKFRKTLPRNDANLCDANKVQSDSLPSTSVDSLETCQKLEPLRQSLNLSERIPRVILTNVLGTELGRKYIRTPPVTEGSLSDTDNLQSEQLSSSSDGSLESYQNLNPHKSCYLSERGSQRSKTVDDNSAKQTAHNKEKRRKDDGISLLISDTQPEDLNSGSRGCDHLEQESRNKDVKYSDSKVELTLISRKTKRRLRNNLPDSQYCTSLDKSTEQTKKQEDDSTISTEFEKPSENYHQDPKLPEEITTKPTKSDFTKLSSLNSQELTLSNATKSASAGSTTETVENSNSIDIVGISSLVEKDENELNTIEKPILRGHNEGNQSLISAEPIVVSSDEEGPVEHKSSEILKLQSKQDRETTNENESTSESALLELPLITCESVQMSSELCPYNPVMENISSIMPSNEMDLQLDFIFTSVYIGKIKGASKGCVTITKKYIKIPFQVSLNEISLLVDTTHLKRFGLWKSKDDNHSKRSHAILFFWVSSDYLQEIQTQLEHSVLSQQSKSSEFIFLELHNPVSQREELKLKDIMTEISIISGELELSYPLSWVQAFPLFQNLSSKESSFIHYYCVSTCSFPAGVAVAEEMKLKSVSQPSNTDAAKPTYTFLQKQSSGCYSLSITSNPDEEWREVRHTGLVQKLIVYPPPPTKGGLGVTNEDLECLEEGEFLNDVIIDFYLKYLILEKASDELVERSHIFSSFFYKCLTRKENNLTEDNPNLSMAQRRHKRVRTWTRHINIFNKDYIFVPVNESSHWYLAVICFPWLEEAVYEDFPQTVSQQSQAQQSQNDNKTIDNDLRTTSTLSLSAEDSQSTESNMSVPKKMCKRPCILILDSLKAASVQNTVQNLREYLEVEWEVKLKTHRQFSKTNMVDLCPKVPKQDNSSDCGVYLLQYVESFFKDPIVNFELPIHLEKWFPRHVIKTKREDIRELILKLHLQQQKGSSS

[13] = target: T6, Rac GTPase-activating protein 1 (Homo sapiens, UniProt Q9H0H5); assay: MgcRacGAP GTPase-activating activity inhibitors, confirmation, biochemical, ADP Hunter fluorescence, primary and confirmatory (AID 624330); assay type: functional
T6 sequence (Q9H0H5 whole entry): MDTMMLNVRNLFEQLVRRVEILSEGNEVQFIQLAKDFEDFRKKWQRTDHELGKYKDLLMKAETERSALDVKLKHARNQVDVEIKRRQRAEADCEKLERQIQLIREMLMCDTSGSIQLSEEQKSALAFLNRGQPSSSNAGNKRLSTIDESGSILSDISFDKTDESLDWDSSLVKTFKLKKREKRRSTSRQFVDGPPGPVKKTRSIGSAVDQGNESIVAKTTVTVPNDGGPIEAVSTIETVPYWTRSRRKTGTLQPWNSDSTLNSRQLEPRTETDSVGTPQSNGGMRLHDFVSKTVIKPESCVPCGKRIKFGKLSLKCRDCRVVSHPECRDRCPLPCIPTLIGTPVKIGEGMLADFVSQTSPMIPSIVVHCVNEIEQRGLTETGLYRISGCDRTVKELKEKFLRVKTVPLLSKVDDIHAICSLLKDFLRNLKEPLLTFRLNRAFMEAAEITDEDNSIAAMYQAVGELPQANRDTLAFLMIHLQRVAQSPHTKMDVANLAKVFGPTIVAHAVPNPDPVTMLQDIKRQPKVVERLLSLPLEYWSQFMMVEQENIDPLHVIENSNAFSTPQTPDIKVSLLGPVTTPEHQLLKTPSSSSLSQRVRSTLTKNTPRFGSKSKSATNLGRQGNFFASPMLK

[14] = HepG2 cell cytotoxicity, dose response, cytotoxicity control, plate reader, cherry-pick, antagonist series (AID 743416); assay type: functional, cell-based
[15] = LGR2 antagonists, dose response, cell-based, HEK293, CRE-luciferase reporter, cherry pick, set 2 (AID 743343); assay type: functional;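 note: transfected cells were stimulated with diluted bursicon conditioned medium after compound addition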
[16] = MC4R antagonists, dose response, counter-screen for LGR2 antagonist project, cell-based, plate reader, cherry pick (AID 743444); assay type: functional;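 note: transfected HEK 293 cells stimulated with alpha-MSH peptide; potency of inhibitors of the alpha-MSH evoked signal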
[17] = target: Glyceraldehyde-3-phosphate dehydrogenase (Homo sapiens, UniProt P04406)
Glyceraldehyde-3-phosphate dehydrogenase, sequence (P04406 whole entry): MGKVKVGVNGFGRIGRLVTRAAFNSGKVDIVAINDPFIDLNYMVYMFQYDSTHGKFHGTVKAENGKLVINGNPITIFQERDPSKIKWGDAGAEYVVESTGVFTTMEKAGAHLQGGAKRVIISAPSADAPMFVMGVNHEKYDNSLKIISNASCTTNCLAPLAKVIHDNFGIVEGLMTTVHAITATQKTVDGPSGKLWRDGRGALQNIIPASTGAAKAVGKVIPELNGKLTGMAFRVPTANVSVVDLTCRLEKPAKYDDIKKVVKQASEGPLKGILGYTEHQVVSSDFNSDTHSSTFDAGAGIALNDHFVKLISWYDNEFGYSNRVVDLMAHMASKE

[18] = target: Heat shock cognate 71 kDa protein (Homo sapiens, UniProt P11142); assay: In Vitro Hsc70 Dose Response Fluorescence Polarization Assay. [Related pubchem assays: 1072 ]
Heat shock cognate 71 kDa protein, sequence (P11142 whole entry): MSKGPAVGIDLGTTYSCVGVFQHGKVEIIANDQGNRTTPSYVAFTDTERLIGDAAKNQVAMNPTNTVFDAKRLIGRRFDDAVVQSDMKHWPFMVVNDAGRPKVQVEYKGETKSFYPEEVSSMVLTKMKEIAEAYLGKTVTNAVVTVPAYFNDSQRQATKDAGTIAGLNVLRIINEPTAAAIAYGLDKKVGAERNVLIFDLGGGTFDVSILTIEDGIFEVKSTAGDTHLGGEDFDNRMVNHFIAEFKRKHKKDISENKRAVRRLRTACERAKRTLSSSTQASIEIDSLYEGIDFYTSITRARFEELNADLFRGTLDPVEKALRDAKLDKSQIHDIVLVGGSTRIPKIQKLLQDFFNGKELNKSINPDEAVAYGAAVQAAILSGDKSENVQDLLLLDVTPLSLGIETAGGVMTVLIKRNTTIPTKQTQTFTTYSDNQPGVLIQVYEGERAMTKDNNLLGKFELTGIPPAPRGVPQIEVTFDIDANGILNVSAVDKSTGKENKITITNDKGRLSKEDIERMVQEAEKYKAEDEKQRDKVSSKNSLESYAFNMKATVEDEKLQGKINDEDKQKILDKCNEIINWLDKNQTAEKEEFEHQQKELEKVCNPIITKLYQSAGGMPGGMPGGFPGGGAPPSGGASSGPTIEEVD

[19] = target: Heat shock 70 kDa protein 1A (Homo sapiens, UniProt P0DMV8); assay: Hsp70 inhibitors, SAR follow-up, biochemical, fluorescence polarization (AID 1072)
Heat shock 70 kDa protein 1A, sequence (P0DMV8 whole entry): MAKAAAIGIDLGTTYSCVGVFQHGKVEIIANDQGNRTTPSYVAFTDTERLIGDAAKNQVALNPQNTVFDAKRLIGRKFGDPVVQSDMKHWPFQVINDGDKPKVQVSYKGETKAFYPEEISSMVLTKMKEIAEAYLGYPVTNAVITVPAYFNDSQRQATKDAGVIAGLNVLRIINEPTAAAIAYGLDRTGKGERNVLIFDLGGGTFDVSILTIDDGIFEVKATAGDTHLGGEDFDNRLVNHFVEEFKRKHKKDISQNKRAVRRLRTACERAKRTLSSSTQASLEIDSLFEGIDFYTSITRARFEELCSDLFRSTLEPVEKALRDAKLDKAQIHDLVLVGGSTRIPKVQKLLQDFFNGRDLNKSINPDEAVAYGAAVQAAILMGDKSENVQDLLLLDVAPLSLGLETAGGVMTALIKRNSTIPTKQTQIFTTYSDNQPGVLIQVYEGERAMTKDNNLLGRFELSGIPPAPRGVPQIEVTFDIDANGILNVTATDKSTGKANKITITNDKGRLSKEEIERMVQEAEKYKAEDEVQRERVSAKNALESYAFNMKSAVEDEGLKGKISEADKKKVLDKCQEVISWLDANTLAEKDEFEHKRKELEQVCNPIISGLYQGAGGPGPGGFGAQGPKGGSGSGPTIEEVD

[20] = target: Transitional endoplasmic reticulum ATPase (Homo sapiens, UniProt P55072, C522A); assay: C522A mutant p97 ATPase inhibitors, dose response, counter-screen for p97 inhibitor project, biochemical, luminescence (AID 1544)
Transitional endoplasmic reticulum ATPase (Homo sapiens, UniProt P55072, C522A), sequence (P55072 2-806 C522A limits assumed): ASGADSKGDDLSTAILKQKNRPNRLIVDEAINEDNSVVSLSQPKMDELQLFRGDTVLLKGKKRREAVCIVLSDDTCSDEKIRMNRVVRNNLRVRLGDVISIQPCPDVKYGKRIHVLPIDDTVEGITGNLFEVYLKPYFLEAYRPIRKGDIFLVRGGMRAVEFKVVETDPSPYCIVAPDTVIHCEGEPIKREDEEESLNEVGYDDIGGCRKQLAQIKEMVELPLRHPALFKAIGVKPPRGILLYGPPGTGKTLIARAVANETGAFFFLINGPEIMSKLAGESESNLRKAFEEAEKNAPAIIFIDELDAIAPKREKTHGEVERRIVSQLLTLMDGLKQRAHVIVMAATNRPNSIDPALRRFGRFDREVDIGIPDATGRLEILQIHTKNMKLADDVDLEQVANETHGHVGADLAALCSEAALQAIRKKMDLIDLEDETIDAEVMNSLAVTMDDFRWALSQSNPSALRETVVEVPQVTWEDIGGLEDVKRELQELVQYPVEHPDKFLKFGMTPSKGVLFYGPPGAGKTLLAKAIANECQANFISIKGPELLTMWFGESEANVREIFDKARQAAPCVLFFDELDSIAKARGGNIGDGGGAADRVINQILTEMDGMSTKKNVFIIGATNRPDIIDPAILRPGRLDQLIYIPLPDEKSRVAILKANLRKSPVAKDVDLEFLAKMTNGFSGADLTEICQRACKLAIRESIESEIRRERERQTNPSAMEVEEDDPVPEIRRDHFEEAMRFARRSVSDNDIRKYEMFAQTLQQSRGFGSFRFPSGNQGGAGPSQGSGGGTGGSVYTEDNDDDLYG

[21] = target: Transitional endoplasmic reticulum ATPase (Homo sapiens, UniProt P55072); assay: p97 ATPase inhibitors, dose response, biochemical (AID 1534)
Transitional endoplasmic reticulum ATPase (Homo sapiens, UniProt P55072), sequence (P55072 whole entry): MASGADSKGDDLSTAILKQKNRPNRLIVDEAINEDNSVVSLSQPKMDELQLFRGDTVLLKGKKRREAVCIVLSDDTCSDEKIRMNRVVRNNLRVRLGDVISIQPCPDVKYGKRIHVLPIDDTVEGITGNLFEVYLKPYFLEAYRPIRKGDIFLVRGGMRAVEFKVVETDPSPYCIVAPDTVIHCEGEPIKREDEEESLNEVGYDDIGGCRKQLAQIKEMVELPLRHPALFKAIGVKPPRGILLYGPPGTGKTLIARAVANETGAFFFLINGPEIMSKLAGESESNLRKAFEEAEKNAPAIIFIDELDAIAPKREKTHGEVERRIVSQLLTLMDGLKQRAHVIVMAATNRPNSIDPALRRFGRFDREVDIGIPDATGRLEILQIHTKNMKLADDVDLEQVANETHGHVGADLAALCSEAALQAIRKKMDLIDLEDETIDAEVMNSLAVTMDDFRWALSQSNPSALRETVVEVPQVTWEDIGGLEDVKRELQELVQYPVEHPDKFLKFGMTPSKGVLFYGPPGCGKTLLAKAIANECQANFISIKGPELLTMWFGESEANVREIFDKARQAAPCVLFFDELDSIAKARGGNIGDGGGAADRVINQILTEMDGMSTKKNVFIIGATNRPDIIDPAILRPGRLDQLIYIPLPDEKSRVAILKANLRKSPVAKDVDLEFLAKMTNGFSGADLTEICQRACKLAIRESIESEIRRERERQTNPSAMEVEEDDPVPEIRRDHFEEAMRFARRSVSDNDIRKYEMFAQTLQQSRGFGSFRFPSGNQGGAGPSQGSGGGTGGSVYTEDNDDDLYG

[22] = target: Induced myeloid leukemia cell differentiation protein Mcl-1 (Homo sapiens, UniProt Q07820); assay type: functional
Induced myeloid leukemia cell differentiation protein Mcl-1, sequence (Q07820 whole entry): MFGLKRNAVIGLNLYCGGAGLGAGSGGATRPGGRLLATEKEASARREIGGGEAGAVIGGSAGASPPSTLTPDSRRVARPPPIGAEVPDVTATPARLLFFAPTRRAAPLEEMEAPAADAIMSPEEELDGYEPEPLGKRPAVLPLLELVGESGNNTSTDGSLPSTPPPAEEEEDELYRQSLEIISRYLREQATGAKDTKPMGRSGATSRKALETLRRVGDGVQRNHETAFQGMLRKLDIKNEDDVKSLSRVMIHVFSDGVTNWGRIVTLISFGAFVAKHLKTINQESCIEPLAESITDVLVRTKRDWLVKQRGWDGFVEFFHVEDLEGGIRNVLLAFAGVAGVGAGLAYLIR

Serine/threonine-protein phosphatase PP1-alpha catalytic subunit, sequence (P62136 whole entry): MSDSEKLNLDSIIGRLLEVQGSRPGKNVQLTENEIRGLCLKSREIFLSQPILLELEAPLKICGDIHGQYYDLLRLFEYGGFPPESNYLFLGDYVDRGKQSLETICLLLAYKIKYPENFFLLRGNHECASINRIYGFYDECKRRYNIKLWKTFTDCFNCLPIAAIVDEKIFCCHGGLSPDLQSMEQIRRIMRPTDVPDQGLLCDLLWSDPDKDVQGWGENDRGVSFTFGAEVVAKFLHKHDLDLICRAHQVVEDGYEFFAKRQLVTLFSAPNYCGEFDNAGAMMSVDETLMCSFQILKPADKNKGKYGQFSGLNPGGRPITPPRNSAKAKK

COc1cnc(-c2ccccn2)nc1Oc1cccc(C(F)(F)F)c1
IC50 [1]: 7.79 µM (active) | IC50 [2]: > 67 µM (not active)

CCOC(=O)C1=C(C)NC(C)=C(C(=O)OC)[C@H]1c1cccc([N+](=O)[O-])c1 [(R)-NITRENDIPINE]
AC50 (Cytochrome P450 2D6): 10 µM (inconclusive) | AC50 (Cytochrome P450 1A2): 31.6 µM (inconclusive)

CCOc1cccc(-c2nnc3n2N=C(c2cc(OC)ccc2OC)CS3)c1
EC50 [3]: 10.5 µM (active) | EC50 [4]: > 12 µM (not active) | EC50 (cells): > 12 µM (not active) | EC50 [5]: 13.1 µM (active) | EC50 [6]: < 0.1 µM (active) | EC50 [7]: 9.53 µM (active) | IC50 [8]: > 80 µM (inactive)

O=C(O)c1ccc(N/N=C/c2c[nH]c3ccccc23)cc1
IC50 [9]: > 39.8 µM (not active) | IC50 [10]: 0.794 µM (active) | IC50 (Caspase-3): 0.906 µM (active) | IC50 [11]: 0.869 µM (active) | IC50 [12]: 0.985 µM (active) | IC50 [13]: 47.7 µM (active) | AC50 [14]: > 52 µM (inactive) | AC50 [15]: 2.15 µM (active) | AC50 [16]: 2.25 µM (active)

COc1ccc(NC(=O)C(=O)O)cc1
IC50 [17]: > 100 µM (not active) | IC50 [18]: > 100 µM (not active) | IC50 [19]: > 100 µM (not active)

Cc1cc2c(C(C)C)c(O)c(O)c(C=O)c2c(O)c1-c1c(C)cc2c(C(C)C)c(O)c(O)c(C=O)c2c1O
IC50 [20]: 15.5 µM (not active) | IC50 [21]: 5.39 µM (active) | IC50 [22]: 1.36 µM (active)
